According to ChEMBL document CHEMBL1126941, “Synthesis and evaluation of unsymmetrically substituted polyamine analogues as modulators of human spermidine/spermine-N1-acetyltransferase (SSAT) and as potential antitumor agents” (1993):

What was measured:
Assay type in all cases: functional, Homo sapiens
LCLC = experiment: Tested for induction of SSAT activity in H157 LCLC cells following treatment with 10 uM of the BESpm
SCLC [1] = experiment: Tested for induction of SSAT activity in H82 SCLC cells following treatment with 10 uM of the BESpm
SCLC [2] = experiment: Tested for induction of SSAT activity in H82 SCLC cells following treatment with 10 uM BESpm

Work on `Br.Br.Br.Br.C#CCNCCCNCCCNCCCNCC` yielded an SSAT (LCLC) of 19100 pmol/min/mg and an SSAT (SCLC [1]) of 19.8 pmol/min/mg.
For `Br.Br.Br.Br.CCNCCCNCCCCNCCCNCC`, the SSAT (LCLC) was 38300 pmol/min/mg and the SSAT (SCLC [2]) was 22.7 pmol/min/mg.
Work on `Br.Br.Br.Br.CCNCCCNCCCNCCCNCC1CC1` yielded an SSAT (LCLC) of 42800 pmol/min/mg and an SSAT (SCLC [1]) of 47.1 pmol/min/mg.
